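Method: 48-hour compound exposure of cells in 96-well plates, five concentrations, linear interpolation of endpoints. TGI marks complete inhibition of growth.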
Experiments:
Test in all cases: inhibition of tumour cell growth, NCI panel, 48 h
DU-145 prostate = system: DU-145 prostate
HOP-62 NSCLC = system: HOP-62 NSCLC
LOX IMVI melanoma = system: LOX IMVI melanoma
UO-31 renal = system: UO-31 renal
COLO 205 colon = system: COLO 205 colon
CAKI-1 renal = system: CAKI-1 renal
SF-539 CNS = system: SF-539 CNS
RXF 393 renal = system: RXF 393 renal
PC-3 prostate = system: PC-3 prostate
SW-620 colon = system: SW-620 colon
UACC-257 melanoma = system: UACC-257 melanoma
OVCAR-3 ovarian = system: OVCAR-3 ovarian
EKVX NSCLC = system: EKVX NSCLC
SF-268 CNS = system: SF-268 CNS
U251 CNS = system: U251 CNS
A549 NSCLC = system: A549 NSCLC
SNB-19 CNS = system: SNB-19 CNS
SK-MEL-2 melanoma = system: SK-MEL-2 melanoma
UACC-62 melanoma = system: UACC-62 melanoma
MCF7 breast = system: MCF7 breast
MOLT-4 leukemia = system: MOLT-4 leukemia
NCI-H460 lung = system: NCI-H460 lung
SNB-75 CNS = system: SNB-75 CNS
HS 578T breast = system: HS 578T breast
SR leukemia = system: SR leukemia
HL-60(TB) leukemia = system: HL-60(TB) leukemia
MALME-3M melanoma = system: MALME-3M melanoma
SK-MEL-5 melanoma = system: SK-MEL-5 melanoma
A498 renal = system: A498 renal
TK-10 renal = system: TK-10 renal
HOP-92 NSCLC = system: HOP-92 NSCLC
BT-549 breast = system: BT-549 breast
HCT-15 colon = system: HCT-15 colon
SK-MEL-28 melanoma = system: SK-MEL-28 melanoma
K-562 leukemia = system: K-562 leukemia
SK-OV-3 ovarian = system: SK-OV-3 ovarian
T-47D breast = system: T-47D breast
MDA-MB-435 = system: MDA-MB-435
ACHN renal = system: ACHN renal
SN12C renal = system: SN12C renal
NCI/ADR-RES ovarian = system: NCI/ADR-RES ovarian
HCT-116 colon = system: HCT-116 colon
786-0 renal = system: 786-0 renal
MDA-MB-231 breast = system: MDA-MB-231 breast
CCRF-CEM leukemia = system: CCRF-CEM leukemia
KM12 colon = system: KM12 colon
OVCAR-5 ovarian = system: OVCAR-5 ovarian
IGROV1 ovarian = system: IGROV1 ovarian
SF-295 CNS = system: SF-295 CNS
OVCAR-4 ovarian = system: OVCAR-4 ovarian
HT29 colon = system: HT29 colon
NCI-H226 lung = system: NCI-H226 lung
M14 melanoma = system: M14 melanoma
NCI-H522 lung = system: NCI-H522 lung
NCI-H23 lung = system: NCI-H23 lung
RPMI-8226 leukemia = system: RPMI-8226 leukemia
OVCAR-8 ovarian = system: OVCAR-8 ovarian
MDA-N = system: MDA-N
HCC-2998 colon = system: HCC-2998 colon

SMILES: OC1(c2ccc3ccccc3c2)c2c(c3ccccc3c3ccccc23)C2=NCCN21 (stereo unspecified)
- TGI (DU-145 prostate): > 65.3 µM
- TGI (HOP-62 NSCLC): 23.3 µM
- TGI (LOX IMVI melanoma): 5.41 µM
- TGI (UO-31 renal): > 48.8 µM
- TGI (COLO 205 colon): 4.17 µM
- TGI (CAKI-1 renal): > 100 µM
- TGI (SF-539 CNS): 13.1 µM
- TGI (RXF 393 renal): 7.68 µM
- TGI (PC-3 prostate): > 69.3 µM
- TGI (SW-620 colon): 23 µM
- TGI (UACC-257 melanoma): > 63.5 µM
- TGI (OVCAR-3 ovarian): 36.9 µM
- TGI (EKVX NSCLC): 36.3 µM
- TGI (SF-268 CNS): 29.2 µM
- TGI (U251 CNS): 17.7 µM
- TGI (A549 NSCLC): > 69.4 µM
- TGI (SNB-19 CNS): > 58.2 µM
- TGI (SK-MEL-2 melanoma): > 46.3 µM
- TGI (UACC-62 melanoma): > 55.1 µM
- TGI (MCF7 breast): 15.8 µM
- TGI (MOLT-4 leukemia): > 100 µM
- TGI (NCI-H460 lung): > 40.5 µM
- TGI (SNB-75 CNS): 14.7 µM
- TGI (HS 578T breast): 24.2 µM
- TGI (SR leukemia): > 28.4 µM
- TGI (HL-60(TB) leukemia): > 100 µM
- TGI (MALME-3M melanoma): 38.1 µM
- TGI (SK-MEL-5 melanoma): > 100 µM
- TGI (A498 renal): 44 µM
- TGI (TK-10 renal): 35.4 µM
- TGI (HOP-92 NSCLC): 70.3 µM
- TGI (BT-549 breast): > 37.3 µM
- TGI (HCT-15 colon): > 39.4 µM
- TGI (SK-MEL-28 melanoma): 6.09 µM
- TGI (K-562 leukemia): > 100 µM
- TGI (SK-OV-3 ovarian): 42.8 µM
- TGI (T-47D breast): > 40.6 µM
- TGI (MDA-MB-435): 5.1 µM
- TGI (ACHN renal): > 100 µM
- TGI (SN12C renal): > 63.6 µM
- TGI (NCI/ADR-RES ovarian): 5.22 µM
- TGI (HCT-116 colon): 10.3 µM
- TGI (786-0 renal): 25.3 µM
- TGI (MDA-MB-231 breast): > 60.6 µM
- TGI (CCRF-CEM leukemia): > 100 µM
- TGI (KM12 colon): 6.12 µM
- TGI (OVCAR-5 ovarian): > 83.7 µM
- TGI (IGROV1 ovarian): 24 µM
- TGI (SF-295 CNS): 12.2 µM
- TGI (OVCAR-4 ovarian): 13.9 µM
- TGI (HT29 colon): 8.63 µM
- TGI (NCI-H226 lung): > 100 µM
- TGI (M14 melanoma): 4.29 µM
- TGI (NCI-H522 lung): 24.8 µM
- TGI (NCI-H23 lung): 47.2 µM
- TGI (RPMI-8226 leukemia): 6.87 µM
- TGI (OVCAR-8 ovarian): > 30.3 µM
- TGI (MDA-N): 4.28 µM

SMILES: COC(=O)C1(C)OC(C)=NC1(C(=O)OC)C(=O)OC (stereo unspecified)
- TGI (DU-145 prostate): > 100 µM
- TGI (HOP-62 NSCLC): > 100 µM
- TGI (LOX IMVI melanoma): > 100 µM
- TGI (UO-31 renal): > 100 µM
- TGI (COLO 205 colon): > 100 µM
- TGI (CAKI-1 renal): > 100 µM
- TGI (SF-539 CNS): > 100 µM
- TGI (RXF 393 renal): > 100 µM
- TGI (PC-3 prostate): > 100 µM
- TGI (SW-620 colon): > 100 µM
- TGI (UACC-257 melanoma): > 100 µM
- TGI (OVCAR-3 ovarian): > 100 µM
- TGI (EKVX NSCLC): > 100 µM
- TGI (SF-268 CNS): > 100 µM
- TGI (HCC-2998 colon): > 100 µM
- TGI (U251 CNS): > 100 µM
- TGI (A549 NSCLC): > 100 µM
- TGI (SNB-19 CNS): > 100 µM
- TGI (SK-MEL-2 melanoma): > 100 µM
- TGI (UACC-62 melanoma): > 100 µM
- TGI (MCF7 breast): > 100 µM
- TGI (MOLT-4 leukemia): > 100 µM
- TGI (NCI-H460 lung): > 100 µM
- TGI (SNB-75 CNS): > 100 µM
- TGI (HS 578T breast): > 100 µM
- TGI (SR leukemia): > 100 µM
- TGI (HL-60(TB) leukemia): 14.4 µM
- TGI (MALME-3M melanoma): > 100 µM
- TGI (SK-MEL-5 melanoma): > 100 µM
- TGI (A498 renal): > 100 µM
- TGI (TK-10 renal): > 100 µM
- TGI (HOP-92 NSCLC): > 100 µM
- TGI (BT-549 breast): > 31.6 µM
- TGI (HCT-15 colon): > 100 µM
- TGI (SK-MEL-28 melanoma): > 100 µM
- TGI (K-562 leukemia): > 100 µM
- TGI (SK-OV-3 ovarian): > 100 µM
- TGI (T-47D breast): > 100 µM
- TGI (MDA-MB-435): > 100 µM
- TGI (ACHN renal): > 100 µM
- TGI (SN12C renal): > 100 µM
- TGI (NCI/ADR-RES ovarian): > 100 µM
- TGI (HCT-116 colon): > 100 µM
- TGI (786-0 renal): > 100 µM
- TGI (MDA-MB-231 breast): > 100 µM
- TGI (CCRF-CEM leukemia): > 44 µM
- TGI (KM12 colon): > 100 µM
- TGI (OVCAR-5 ovarian): > 100 µM
- TGI (IGROV1 ovarian): > 100 µM
- TGI (SF-295 CNS): > 100 µM
- TGI (OVCAR-4 ovarian): > 100 µM
- TGI (HT29 colon): > 100 µM
- TGI (NCI-H226 lung): > 100 µM
- TGI (M14 melanoma): > 100 µM
- TGI (NCI-H23 lung): > 100 µM
- TGI (RPMI-8226 leukemia): > 100 µM
- TGI (OVCAR-8 ovarian): > 100 µM
- TGI (MDA-N): > 100 µM

Reference: PubChem BioAssay (NCI)
